Converted amounts (≈) assume the structure as drawn. Read-outs that look alike come from different tables or passages of the source.
Columns and labels:
[1] = system: O. gutturosa adult male worms; experiment: O. gutturosa adult worm ex vivo assay, MTT/formazan viability; assay type: cell-based, Onchocerca gutturosa; conditions: supplement, SD in brackets in the PDF table, read-out: O. gutturosa EC50 (uM) MTT viability inhibition
Experimental: (§1) Activity against O. gutturosa adult male worms was determined using reported procedures.[7] The EC50 values were calculated using Microsoft Office Excel (2010) data analysis software. The tested compound is considered active when a motility reduction of ≥50% is observed by comparison to the untreated controls. O. gutturosa adult male worms were obtained postmortem from freshly slaughtered cattle. The worms were dissected from the nuchal ligament connective tissues of naturally infected cattle in Gambia, West Africa; the material was purchased from the International Trypanotolerance Centre, Banjul, from local butchers for use in this study. The adult worms were transferred individually to each well of a sterile 24-well (2 mL) plate (Thermo Fisher Scientific, UK) and maintained for at least 24 h in culture before use. The medium used was a minimum essential medium (MEM) with Earl’s salts and L-glutamine (Life Technologies Ltd., UK) supplemented with 10% heat inactivated newborn calf serum (Life Technologies Ltd., UK), 200 units/mL penicillin, 200 μg/mL streptomycin, and 0.5 μg/mL amphotericin B (Life Technologies Ltd., UK). Only normally active worms were used for the test, and all assays were conducted at 37 °C and 5% CO2. The positive control drug used was Immiticide (melarsomine dihydrochloride, Merial, USA). Known amounts of compounds were solubilized in 1 mL of DMSO. All stock solutions were allowed to stand at room temperature prior to use. The test items (four worms/drug concentration) were compared to untreated controls (six worms) and the positive control (two worms/drug concentration). Drug efficacy was assessed by the measurement of mean worm motility scores on a scale of 0 (immotile) to 10 (maximum) every 24 h, terminating at 120 h, using an Olympus inverted microscope. The results are reported as a percentage of the maximum score obtainable (100%) by calculating the motility index scores. The test drug is considered active when a motility reduction of ≥50% is observed by comparison to the untreated controls. […] In addition, biochemical evaluation of worm viability was assessed using MTT/formazan colorimetry. The MTT assay was carried out after the last motility reading (120 h). Single intact worms were placed in each well of a 48-well plate (Thermo Fisher Scientific, UK) containing 0.5 mL of 0.5 mg/mL MTT (Sigma, UK) in PBS solution and then incubated for 30 min at 37 °C. The worms were removed, blotted carefully, and individually transferred to separate wells of a 96-well microtiter plate, each containing 200 μL of DMSO to solubilize the formazan. After 1 h, the plate was gently agitated to disperse the color evenly and the absorbance value (optical density, OD) of the resulting formazan solution was determined at 490 nm using an absorbance microplate reader (Biotek ELx800, Thermo Fisher Scientific, UK). The results are expressed as the mean OD per drug concentration. Inhibition of formazan formation is correlated with worm damage or death.

[2] = LogD measurement (octanol-water); assay type: physicochemical
Experimental: LogD Measurement: Measurement of octanol-water distribution coefficient of samples using a […]
stock solutions for plating. Aqueous Phase: 100mM Buffer, pH=7.4 (0.1M Potassium phosphate buffer, diluted from Sigma 1M P3619-1GA to 0.1 M with MilliQ water), pH=2.2 (0.1M- NaCl pH adjusted with 0.1N HCL), pH=6.8 (0.1M - KH2PO4/K2HPO4), pH=5 (4 .04g of NaOH (Pellets), 8.65g of Glacial Acetic Acid, 11.874g of NaCl. In in 1 liter water. Adjusted to pH to 5 with either 1N NaOH or 1N HCl); Organic Phase: 1-Octanol (O021). Sample Concentration:
1000uM, […] 10 mM DMSO stock solution diluted in […] of organic Phase and […] of aqueous Phase. DMSO content: 10%. The controls were plated from the standard 10 mM DMSO stock and run on the standard concentration ([…]) range of the assay. Incubation time:
Sonication for 30 minutes followed by 24 hours shaking at 750 rpm in 96 deep well plate (VWR

[3] = Kinetic solubility measurement; assay type: physicochemical; conditions: 10 mM DMSO stock solutions
Experimental: Kinetic Solubility Measurement: The standard kinetic solubility assay runs on […] concentration range using 10 mM DMSO stock solutions for plating. Single point calibration assay runs in duplicates. Concentration of standards: […] DMSO solutions prepared by diluting 10 mM stock, solution with DMSO. Concentration of samples: 200 µM, 4 µl 10 mM DMSO stock solution diluted with the appropriate buffer to […]. DMSO content:
2%. Buffers: pH=7.4 (0.1M Potassium phosphate buffer, diluted from Sigma 1M P3619-1GA to 0.1 M with MilliQ water), pH=2.2 (0.1M- NaCl pH adjusted with 0.1N HCL), pH=6.8 (0.1M - KH2PO4/K2HPO4), pH=5 (4 .04g of NaOH (Pellets), 8.65g of Glacial Acetic Acid, 11.874g of NaCl. In in 1 liter water. Adjusted to pH to 5 with either 1N NaOH or 1N HCl). The controls were plated from the standard 10 mM DMSO stock and run on the standard concentration (200µM) range of the assay. Incubation time: 24 hours shaking at […] in Millipore Multiscreen HTS filter plate for Aqueous Solubility Assay (MSSLBPC50), on room temperature.
After incubation time filtration with positive pressure manifold was performed. […]

[4] = Liver S9 metabolic stability assay, rat; assay type: in vitro ADME; conditions: 3 μM, 60 min
Experimental: (§2) Liver S9 Metabolic Stability Assay: Incubations were performed at 37 °C in a Dubnoff Shaking water bath using 2 mL 96-well incubation plates. Rat and human S9 protein concentrations were 0.75 mg/ml and 1.2 mg/ml, respectively. The final concentrations of NADPH, UDPGA, and GSH were 1, 0.5, and 2.5 mM, and the final concentration of PAPS was 0.05 mg/ml. Substrate concentrations were 3µM, incubation time was 60 minutes, and all tests were done in triplicate. The incubation was conducted in 200 mM Tris buffer containing 2 mM magnesium chloride, pH=7.4 and the total incubation volume was 0.5 ml. Samples were analysed via LC-MS/MS and reported as percentage remaining after incubation for 60 minutes. […]

[5] = Liver S9 metabolic stability assay, human; assay type: in vitro ADME; conditions: 3 μM, 60 min
Experimental: as §2

[6] = system: O. gutturosa adult male worms; experiment: O. gutturosa adult worm ex vivo assay, motility; assay type: cell-based, Onchocerca gutturosa
Experimental: as §1
Data S1. Onchocerca gutturosa adult male worms EC 50 Curves
Plotted using Graph Pad Prism 7.03, least square original fit, sigmoidal, 4PL
The measurement of mean worm motility every 24 h, terminating at 120 h, serial 1 in 4 drug dilutions to find
activity endpoint and produce EC50 values (geomean, n=2) for motility reduction. (4 worms per drug […]

[7] = supplement, read-out: measured logD
[8] = Onchocerca gutturosa, read-out: O. gutturosa EC50 μM (SD), ex vivo adult worm motility reduction, SD in brackets
[9] = Onchocerca gutturosa, read-out: O. gutturosa EC50 (uM) motility inhibition, supplement, SD in brackets in the PDF table

| Compound | EC50 [1] [µM] | logD ([2]; pH 7.4) | measured logD ([2]; supplement) | solubility kinetic at 24 h [3] [µM] | Rat S9 metabolic stability [4] [% remaining] | Human S9 metabolic stability [5] [% remaining] | EC50 ([6]; adult worm motility, bound stated, read-out: O. gutturosa EC50) [µM] | EC50 ([6]; supplement, SD in brackets in the PDF table, read-out: O. gutturosa EC50 (uM) motility inhibition) [µM] | EC50 ([1]; Onchocerca gutturosa) [µM] | logD at 24 h [2, 7] | EC50 [6, 8] [µM] | EC50 [6, 9] [µM] | logD at 24 h ([2]; pH 7.4, read-out: logD) |
| --- | --- | --- | --- | --- | --- | --- | --- | --- | --- | --- | --- | --- | --- |
| 3-(3-Methyl-2-pyridyl)-N-(5-pyrrolidin-1-yl-2-pyridyl)-1,2,4-thiadiazol-5-amine [Compound 21] | 0.14 | 2.65 | 2.65 | 2.17 | 61 | 86 | < 0.1 | 0.044 | – | – | – | – | – |
| Cc1cccnc1Nc1nc(-c2ccc(OC3CCOCC3)cn2)no1 [Compound 6, N-(3-Methylpyridin-2-yl)-3-(5-((tetrahydro-2H-pyran-4-yl)oxy)pyridin-2-yl)-1,2,4-oxadiazol-5-amine] | 4.06 | – | – | 57.5 (≈ 20.3 µg/mL) | 85 | 98 | – | – | 4.1 | 1.7 | 0.07 | 0.072 | – |
| c1ccc(Nc2nc(-c3ccccn3)ns2)nc1 [Compound 9, N,3-Di(pyridin-2-yl)-1,2,4-thiadiazol-5-amine] | – | – | – | 8.2 (≈ 2.09 µg/mL) | 83 | 83 | – | – | 1.1 | 1.8 | 0.16 | 0.155 | 1.8 |
| Cc1cccnc1Nc1nc(-c2ccc(C#N)cn2)ns1 [Compound 13, 6-(5-((3-Methylpyridin-2-yl)amino)-1,2,4-thiadiazol-3-yl)nicotinonitrile] | – | – | – | 0.55 (≈ 0.162 µg/mL) | 73 | 66 | – | – | 20 | 2.75 | 5.8 | – | 2.75 |
| Cc1cccnc1Nc1nc(-c2cc(C#N)ccn2)ns1 [Compound 14] | – | – | – | 2.55 (≈ 0.751 µg/mL) | 78 | 65 | – | – | 4.5 | 2 | 3.1 | – | 2 |
| Cc1cccnc1Nc1nc(-c2cc(C(=O)N(C)C)ccn2)ns1 [Compound 16] | – | – | – | 26.5 (≈ 9.02 µg/mL) | 78 | 89 | – | – | 1.1 | 1.9 | 3.28 | – | 1.9 |
| Cc1cccnc1Nc1nc(-c2cc(C3CCN(C)CC3)ccn2)ns1 [Compound 22] | – | – | – | 184 (≈ 67.5 µg/mL) | 81 | 78 | – | – | 13.1 | 2 | 0.2 | 0.198 | 2 |
| COc1cccnc1Nc1nc(-c2cc(C)ccn2)ns1 [Compound 29, N-(3-Methoxy-2-pyridyl)-3-(4-methyl-2-pyridyl)-1,2,4-thiadiazol-5-amine] | – | – | – | 26.5 (≈ 7.93 µg/mL) | 70 | 72 | – | – | 0.88 | 2.1 | 0.12 | 0.121 | 2.1 |
| CC(C)Oc1cc(-c2nsc(Nc3ncccc3N(C)C)n2)ncc1C(F)(F)F [Compound 33] | – | – | – | 1.43 (≈ 0.607 µg/mL) | 8 | 100 | – | – | 0.83 | 3 | 0.85 | 0.852 | 3 |
| CN1CCC(Oc2ccc(Nc3nc(-c4ccccn4)ns3)nc2)CC1 [Compound 36, N-(5-((1-Methylpiperidin-4-yl)oxy)pyridin-2-yl)-3-(pyridin-2-yl)-1,2,4-thiadiazol-5-amine] | – | – | – | 193 (≈ 71.3 µg/mL) | 99 | 88 | – | – | – | 1.7 | 1.12 | – | 1.7 |
| CC(C)Oc1ccc(-c2nsc(Nc3cc(C(F)(F)F)c(C(C)C)cn3)n2)nc1 [Compound 37] | – | – | – | 1.00 (≈ 0.423 µg/mL) | 100 | 100 | – | – | 0.3 | 2.8 | 0.05 | 0.053 | 2.8 |
| CC(=O)N(C)c1cc(C(F)(F)F)cnc1Nc1nc(-c2ccccn2)ns1 [Compound 53] | – | – | – | 4.05 (≈ 1.6 µg/mL) | – | – | – | – | 0.15 | 2.2 | 0.05 | 0.047 | 2.2 |
| CC(C)Oc1ccc(-c2nsc(Nc3ncc(C(F)(F)F)cc3C(=O)N(C)C)n2)nc1 [Compound 57] | – | – | – | 3.27 (≈ 1.48 µg/mL) | – | – | – | – | 1.3 | 3.2 | 0.58 | 0.578 | 3.2 |
| CNC(=O)c1cccnc1Nc1nc(-c2ccc(OC(C)C)cn2)ns1 [Compound 60, 2-((3-(5-Isopropoxypyridin-2-yl)-1,2,4-thiadiazol-5-yl)amino)-N-methylnicotinamide] | – | – | – | 10.2 (≈ 3.76 µg/mL) | – | – | – | – | 2.4 | 1.8 | 0.67 | – | 1.8 |

— PMC9421654, “Discovery of Substituted Di(pyridin-2-yl)-1,2,4-thiadiazol-5-amines as Novel Macrofilaricidal Compounds for the Treatment of Human Filarial Infections” (Journal of Medicinal Chemistry, 2022)
